# Results as given in paper PMC12080252, “Daphnia magna as an Alternative Model for (Simultaneous) Bioaccumulation and Chronic Toxicity Assessment—Controlled Exposure Study Indicates High Hazard of Heterocyclic PAHs” (Environmental Science & Technology, 2025).
# Where “and” joins values, the source holds several entries; their conditions need not be identical. Equal entries are not always repeated.
# How the values were obtained:
# Daphnia magna = experiment: Chronic reproduction toxicity test (OECD 211) with passive dosing; format: in vivo; parameters: % inhibition, avr. of vessels: concentration or dose not given beside the values; details: for EC10: 21-day reproduction inhibition; for #offspring per mother, Total: single vessels (replicates); for #dead offspring per mother, Total: single vessels; for wet weight of parent daphnids, change relative to control: end of 21-d exposure
# Description: (§1) Chronic toxicity tests with D. magna were performed according to the OECD guideline 211^2 using the passive dosing method. Two days before the tests, the exposure solution was predosed by shaking 10 PDMS disks loaded with the test substance in 1 L of medium for 48 h. Each test vessel (250 mL) was first flushed with the dosed solution to equilibrate the vessel walls, then filled with 100 mL of test solution, one PDMS disk, and one juvenile D. magna (<24 h old). The tests were conducted in loosely closed bottles to allow for adequate gas exchange and limit evaporation. The exposure medium was changed three times per week, and the animals were fed D. subspicatus daily (0.2 mg C/Daphnia/day). The number of offspring per adult and behavioral or physiological effects (e.g., size, movement, unhatched eggs) were recorded daily (except weekends). Dissolved oxygen, pH and temperature were also measured each week.
# (§2) Tests were performed under static conditions (20 °C, 16:8 h light/dark cycle, 1 klux). Each compound was tested in 10 replicates for controls and limit tests (a single high concentration exposure to screen for significant toxic effects) and with 6 or 10 replicates for concentration–response tests. Reuse of silicone disks was included in some experiments (Table S3). Reproductive inhibition was assessed by counting offspring over 21 days. The number of offspring per mother in treatment groups was compared to controls, and the percent inhibition per replicate was used to generate concentration–response curves. A minimum of five concentrations per compound were tested to determine EC10, EC20, and EC50 values. For each test, three sets of polymers were rotated between loading, dosing, and exposure stages (Figure S2). Initial (before animal and food addition) and final (after 2–3 days of exposure, just before the medium change) water concentrations (CW) were monitored, with the latter collected after centrifugation to remove biomass (e.g., algae, carapaces, or feces).
# (§3) All data are presented as average ± standard deviation. Student’s t test was used to analyze significance (p-value >0.05 considered insignificant). Concentration–response curve parameters (effective concentrations and confidence limits) and plots were generated using GraphPad Prism software (V6.01, GraphPad Software, La Jolla, CA, USA). The exposure concentrations were log10 transformed before fitting. Then a four parameters logistic model with variable slope was used to obtain EC10, EC20 and EC50 (see section S5 in SI file for details). Effective chemical activities (EA50) for chronic toxicity were calculated as follows: [drawing 1] 1 […]
# (§4) S5. Concentration-response curve (CRC) fitting procedure
# (§5) GraphPad Prism version 9.5.1 was used to fit CRC and obtain EC10, EC20, EC50 values and their confidence intervals. The exposure concentrations were log10 transformed before fitting. Then a four parameters logistic model with variable slope was used that describes the response as a function of following four parameters: minimum response (the Bottom), maximum response (the Top), the concentration required to cause a response half-way between the minimum and maximum (the EC50) and the slope of the curve […]
# (§6) concentration. The Top was constrained to 100, the Bottom was constrained to 0, the HillSlope was not […]
# (§7) !"# %& = !"# %&* − , × !"# 3 * 4
# (§8) (, + ,((!"# %&'(<=)×-.!!/!"01)
# (§9) Figure S7 Concentration-response curves of four NSO-PAHs based on reproductive inhibition during 21-day chronic toxicity tests with D. magna.
# (§10) (1 picture or pasted object on this page, not shown here)
# [1] = as above; format: in vivo, Daphnia magna; parameters: % inhibition, avr. of vessels: concentration or dose not given beside the values; details: Daphnia magna, in vivo, other: waterborne exposure by passive dosing from PDMS disks, 21-day test
# Description: as §1, §2, §3, §4, §5, §6, §7, §8, §9, §10
# [2] = 21-day reproduction test, sheet Test 4-BNF, last treatment block, single replicate vessels 1-6
# [3] = BNF avr. medium concentration 0.77 µg/L, 21 days
# [4] = BNF avr. medium concentration 2.99 µg/L, 21 days
structure (smiles),measurement,setting,value
"c1ccc2c(c1)ccc1oc3ccccc3c12 [BNF, benzo[b]naphtho[1,2-d]furan]",EC10,Daphnia magna; 97.5-2.5% confidence interval in brackets,0.91 (0.35-1.67) μg L^-1
same,EC10,Daphnia magna; confidence interval in brackets,4.17 (1.60-7.63) nmol L^-1
same,"% inhibition, avr. of vessels","Daphnia magna; 21-day reproduction test, sheet Test 4-BNF, last treatment block, average of 6 vessels",35.3%
same,"% inhibition (of reproduction, per vessel)",Daphnia magna; [2],17.3% and 34.4% and 37.2% and 35.8% and 67.2% and 20.1%
same,Total #dead offspring per mother (per vessel),Daphnia magna; [2],1 and 0
same,growth of parent D. magna (wet weight),"Daphnia magna; 21-day test, p-value <0.05",significantly inhibited D. magna growth
same,%offspring mortality,Daphnia magna; 21 days,0.73%
same,#average live offspring,"Daphnia magna; 21 days, mean of 6 vessels, sheet Test 4-BNF, last treatment block",45
same,"LOEC (lowest observed effect concentration, reproduction inhibition)","Daphnia magna; 21 days, p-value <0.05 vs controls",3.0 μg L^–1
same,#total live offspring,"Daphnia magna; 21 days, sum of 6 vessels, sheet Test 4-BNF, last treatment block",272
same,"#offspring per mother, Total","Daphnia magna; BNF avr. medium concentration 0.35 µg/L (methanol for dosing 0.063 g/L), 21 days",77 and 63 and 72 and 59 and 68
same,%offspring mortality,"Daphnia magna; BNF avr. medium concentration 0.35 µg/L, 21 days",0.25%
same,"% inhibition, avr.","Daphnia magna; BNF avr. medium concentration 0.35 µg/L, 21 days, average of vessels",4.4%
same,#average live offspring,"Daphnia magna; BNF avr. medium concentration 0.35 µg/L, 21 days, per mother",67
same,#total live offspring,"Daphnia magna; BNF avr. medium concentration 0.35 µg/L, 21 days, sum of all vessels",402
same,"#offspring per mother, Total","Daphnia magna; BNF avr. medium concentration 0.77 µg/L (methanol for dosing 0.125 g/L), 21 days",72 and 65 and 81 and 60 and 59
same,%offspring mortality,Daphnia magna; [3],0.00%
same,"% inhibition, avr.","Daphnia magna; BNF avr. medium concentration 0.77 µg/L, 21 days, average of vessels",2.8%
same,#average live offspring,"Daphnia magna; BNF avr. medium concentration 0.77 µg/L, 21 days, per mother",68
same,"#dead offspring per mother, Total",Daphnia magna; [3],0
same,#total live offspring,"Daphnia magna; BNF avr. medium concentration 0.77 µg/L, 21 days, sum of all vessels",409
same,"#offspring per mother, Total","Daphnia magna; BNF avr. medium concentration 1.55 µg/L (methanol for dosing 0.25 g/L), 21 days",68 and 44 and 67 and 57 and 40
same,%offspring mortality,"Daphnia magna; BNF avr. medium concentration 1.55 µg/L, 21 days",0.36%
same,"% inhibition, avr.","Daphnia magna; BNF avr. medium concentration 1.55 µg/L, 21 days, average of surviving vessels",21.3%
same,#average live offspring,"Daphnia magna; BNF avr. medium concentration 1.55 µg/L, 21 days, per mother",55
same,#total live offspring,"Daphnia magna; BNF avr. medium concentration 1.55 µg/L, 21 days, sum of surviving vessels",276
same,state of the mother animal (parental mortality),"Daphnia magna; BNF avr. medium concentration 1.55 µg/L, vessel 5, day 16",dead
same,"#offspring per mother, Total","Daphnia magna; BNF avr. medium concentration 2.99 µg/L (methanol for dosing 0.5 g/L), 21 days",46 and 49 and 38 and 47 and 60 and 51
same,%offspring mortality,Daphnia magna; [4],0.00%
same,"% inhibition, avr.","Daphnia magna; BNF avr. medium concentration 2.99 µg/L, 21 days, average of vessels",30.8%
same,#average live offspring,"Daphnia magna; BNF avr. medium concentration 2.99 µg/L, 21 days, per mother",49
same,"#dead offspring per mother, Total",Daphnia magna; [4],0
same,#total live offspring,"Daphnia magna; BNF avr. medium concentration 2.99 µg/L, 21 days, sum of all vessels",291
same,EA50 (effective chemical activity),"Daphnia magna; EC50/subcooled liquid solubility, eq 1",0.002 unitless
same,Classification according to REACH Annex XIII,Daphnia magna; chronic EC10 < 10 μg L^–1,toxic to aquatic life
same,CTLBB (critical target lipid body burden),Daphnia magna; derived from chronic EC10 using eq 3,1.7 μmol g^-1 octanol
same,"wet weight of parent daphnids, change relative to control",Daphnia magna; 0.3 µg/L (Fig. S9),-11%
same,"wet weight of parent daphnids, change relative to control",Daphnia magna; 0.8 µg/L (Fig. S9),-23%
same,"wet weight of parent daphnids, change relative to control",Daphnia magna; 1.5 µg/L (Fig. S9),-12%
same,"wet weight of parent daphnids, change relative to control",Daphnia magna; 3.0 µg/L (Fig. S9),-33%
same,"wet weight of parent daphnids, change relative to control",Daphnia magna; 4.4 µg/L (Fig. S9),-38%
same,Parent animal mortality,"Daphnia magna; vessel 5, day 16, sheet Test 4-BNF, last treatment block",dead (reported as exposure related)
same,"mortality at 21 days, 0.3 µg/L","[1]; 0.3 µg/L (Fig. S8), read-out: % offspring mortality of total offspring",0.3%
same,"mortality at 21 days, 0.8 µg/L","[1]; 0.8 µg/L (Fig. S8), read-out: % offspring mortality of total offspring",0%
same,"mortality at 21 days, 1.5 µg/L","[1]; 1.5 µg/L (Fig. S8), read-out: % offspring mortality of total offspring",0.4%
same,"mortality at 21 days, 3 µg/L","[1]; 3.0 µg/L (Fig. S8), read-out: % offspring mortality of total offspring",0%
same,"mortality at 21 days, 4.4 µg/L","[1]; 4.4 µg/L (Fig. S8), read-out: % offspring mortality of total offspring",0.7%
same,mortality at 21 days,"[1]; at higher exposure levels, read-out: offspring mortality",< 1%
